Key:
EC = EC proliferation, 3[H]thymidine incorporation assay (Table 3); assay type: cell-based, human
Protocol: EC proliferation was measured using a ^3[H]thymidine incorporation assay. EC were seeded in flatbottomed 96-well tissue culture plates (5000 cells/well) and grown for 3 days, in culture medium. In some cultures the proliferation of EC was enhanced by incubation with 10 ng/ml bFGF. During the last 6 hours of the assay, the culture was pulsed with 0.5 μCi [methyl-3 H]thymidine/well. Results are expressed as the arithmetic mean counts per minute (cpm) of triplicate cultures.

[1] = system: intercellular adhesion molecule-1 (ICAM-1); assay: ICAM-1 expression on bFGF-treated EC (flow cytometry, Northern blot); assay type: cell-based, human; conditions: for bFGF mediated downregulation of ICAM-1: 100 μg/ml added simultaneously with 10 ng/ml bFGF, 3 days
Protocol: In a first series of experiments, PF4 and βpep peptides were tested for their ability to prevent bFGF (fibroblast growth factor) mediated downregulation of ICAM-1. […] Simultaneously 100 μg/ml of each PF4, βpep-14, βpep-16, or medium was added. Mean ICAM-1 fluorescence intensity values were determined.
Since the in vivo situation of tumor-associated EC involves the low expression or even absence of ICAM-1, the next set of experiments aimed to study the ability to re-induce ICAM-1 expression after bFBF preincubation. […] In these experiments, HUVEC were pretreated for 3 days with bFGF, subsequently PF4 was added for 3 days and, where indicated in the last 16 hours of culture 4 ng/ml TNF(X was added. Human umbilical vein derived endothelial cells (HUVEC) were harvested from normal human umbilical cords by perfusion with 0.125% trypsin/EDTA. Cells were cultured in fibronectin (FN) coated tissue culture flasks in culture medium (RPMI-1640 with 20% human serum (HS), supplemented with 2 mM glutamine and 100 U/ml penicillin and 0.1 mg/ml streptomycin). Immunofluorescence using indirect PE-conjugated reagents required three separate incubations. 1×10^5 EC were fixed for 1 hour in 1% paraformaldehyde, resuspended in 20 μl appropriately diluted Mab and incubated for 1 hour on ice. Subsequently, cells were washed two times in PBS/BSA (0.1%) and incubated for another 30 minutes with biotinylated rabbit-anti-mouse Ig (Dako, Glostrup, Denmark). After another 2 washings, cells were incubated with streptavidin-phycoerythrin conjugate (Dako). Stained cells were analyzed on a FACScan flowcytometer. Data analysis was performed using PCLysys software (Becton Dickinson, Mountain View, Calif.). Statistical significance of observed differences was determined using the Student's t-test.
The anergy of EC to stimulation with inflammatory cytokines was the subject of additional experiments. For these experiments, HUVEC (human vascular endothelial cells) were pretreated with 10 ng/ml bFGF for 3 days. Subsequently, cells are subcultured for 3 days with […] in the presence of PF4. For the last 16 hours of the culture 4 ng/ml TNF-α was added to induce upregulation of ICAM-1. […] The regulation of ICAM-1 at the protein level was confirmed in Northern blot analysis for detection of ICAM-1 message. In these experiments, HUVEC were cultured for 3 days with bFGF and treated for the last 4 and 24 hours with PF4 (100 μg/ml). TNF-α was added 2 hours before isolation of RNA. RNA from a subconfluent EC cultures (75 cm^2 Petri-dishes) incubated with bFGF for different time-points was isolated using an RNA-zol kit (Campro Scientific, Houston, Tex.). Total RNA (10 μg) for each sample was separated in a 0.8% formaldehyde-denaturing gel, transferred to nitrocellulose (Hybond N+, Amersham International, Amersham, UK) and hybridized to a ^32P-labelled 1.9 Kb c-DNA probe, containing the functional sequence of the human ICAM-1 gene (a gift from Dr. B. Seed). Membranes were washed at a high stringency in 0.2×SSC, 0.1% SDS at 50° C. for 1 hour. Filters were exposed to X-ray films (Kodak X-omat, Eastman Kodak Company, Rochester, N.Y.) using an intensifying screen at −80° C. for not less than 12 hours. Autoradiograms were subjected to scanning using a laser densitometer (Model GS670, Bio-Rad, Hercules, Calif.) and data were analysed with the Molecular Analyst PCTM software. The intensity of the major ICAM-1 mRNA transcript was normalized with respect to actin mRNA expression used as a control.

[2] = system: endothelial cell (FBHEC, HUVEC)
Protocol: β-sheet peptides βpep 1-24 were tested in an endothelial cell proliferation assay using ^3H-thymidine incorporation.

HUVEC = conditions: PF4 100 μg/ml, bFGF 10 ng/ml
Protocol: Functional impact for the observed phenomena was provided by leukocyte/EC adhesion assays as described earlier (Griffloen et al. Cancer Res. 56, 1111-1117 (1996)). […] PHA-activated peripheral blood T lymphocyte were adhered for 1 hour at 37° C. to TNF-α (4 ng/ml), bFGF (10 ng/ml) and PF4 (100 μg/ml) treated, or control (HUVEC). Non-adhering cells were removed and adhered cells were enumerated by an inverted microscope. Values of one representative experiment out of three are expressed as numbers of adhered cells per high power field. Statistical significance is determined by the Student's t-test.

SCK tumors = assay: Radiosensitization test of SCK tumors, i.p. injections plus 10 Gy on days 0 and 1
Protocol: On days 0 and 1 the injections were given 2 hours prior to tumor irradiation (10 Gy each day) (Mauceri et al., Nature 394, 287-91 (1998)).
Tumor volume was determined by measuring the diameters of the tumor using metric-scale calipers (Scienceware; Pequannock, N.J.) and solving the equation to determine the volume of a spheroid: (a^2×b×Π)/6, where ‘a’ is the width and ‘b’ is the length of the tumor.
Growth delay was calculated by subtracting the average time for control tumors to grow three-fold in volume from the time required for treated tumors to increase in volume by 3-fold from the day of radiation.

[3] = second expt 2, 1 μg/ml, 10 ng/ml bFGF, medium 52808 ± 4092
[4] = second expt 2, 1 μg/ml, no bFGF, medium 6780 ± 713
[5] = second expt 2, 10 μg/ml, 10 ng/ml bFGF, medium 52808 ± 4092
[6] = second expt 2, 10 μg/ml, no bFGF, medium 6780 ± 713
[7] = second expt 2, 100 μg/ml, 10 ng/ml bFGF, medium 52808 ± 4092
[8] = second expt 2, 100 μg/ml, no bFGF, medium 6780 ± 713
[9] = first expt 2, 1 μg/ml, 10 ng/ml bFGF, medium 29079 ± 2506
[10] = first expt 2, 1 μg/ml, no bFGF, medium 14296 ± 2490
[11] = first expt 2, 10 μg/ml, 10 ng/ml bFGF, medium 29079 ± 2506
[12] = first expt 2, 10 μg/ml, no bFGF, medium 14296 ± 2490
[13] = first expt 2, 100 μg/ml, 10 ng/ml bFGF, medium 29079 ± 2506
[14] = first expt 2, 100 μg/ml, no bFGF, medium 14296 ± 2490

Compound: O=C1CCC(N2C(=O)c3ccccc3C2=O)C(=O)N1 (stereo not shown) [thalidomide, reference compound]
- EC growth in vitro (EC): do not affect EC growth in vitro
- effect on ICAM-1 expression, other inhibitors of angiogenesis [1]: did not affect ICAM-1 expression

Compound: ANIKLSVEMKLFKRHLKWKIIVKLNDGRELSLD [βpep-8]
- cell proliferation activity (control of endothelial cell proliferation) [2]: little cell proliferation activity

Compound: Platelet Factor 4 [PF4]
- bFGF mediated inhibition of leukocyte adhesion to cultured HUVEC (HUVEC): completely abolished
- EC proliferation, (3H)-thymidine incorporation (EC; expt 1, 1 μg/ml, 10 ng/ml bFGF, medium 28815 ± 1007): 28782 ± 815 cpm
- EC proliferation, (3H)-thymidine incorporation (EC; expt 1, 1 μg/ml, no bFGF, medium 4044 ± 206): 4656 ± 456 cpm
- EC proliferation, (3H)-thymidine incorporation (EC; expt 1, 10 μg/ml, 10 ng/ml bFGF, medium 28815 ± 1007): 23868 ± 402 cpm
- EC proliferation, (3H)-thymidine incorporation (EC; expt 1, 10 μg/ml, no bFGF, medium 4044 ± 206): 4066 ± 351 cpm
- EC proliferation, (3H)-thymidine incorporation (EC; expt 1, 100 μg/ml, 10 ng/ml bFGF, medium 28815 ± 1007): 4655 ± 421 cpm
- EC proliferation, (3H)-thymidine incorporation (EC; expt 1, 100 μg/ml, no bFGF, medium 4044 ± 206): 1651 ± 172 cpm
- EC proliferation, (3H)-thymidine incorporation (EC; [3]): 43524 ± 5318 cpm
- EC proliferation, (3H)-thymidine incorporation (EC; [4]): 6171 ± 1227 cpm
- EC proliferation, (3H)-thymidine incorporation (EC; [5]): 8337 ± 704 cpm
- EC proliferation, (3H)-thymidine incorporation (EC; [6]): 3547 ± 317 cpm
- EC proliferation, (3H)-thymidine incorporation (EC; [7]): 1654 ± 375 cpm
- EC proliferation, (3H)-thymidine incorporation (EC; [8]): 947 ± 170 cpm
- bFGF mediated downregulation of ICAM-1 [1]: did not result in the loss of ICAM-1 expression
- expression of ICAM-1 ([1]; 100 μg/ml alone): enhanced the expression of ICAM-1
- re-induction of ICAM-1 expression after bFGF preincubation ([1]; HUVEC pretreated 3 days with bFGF, then 100 μg/ml for 3 days in the presence of bFGF): reinduction of ICAM-1
- decreased inflammatory response (TNF-α induced ICAM-1) of angiogenic stimulated EC ([1]; bFGF-pretreated HUVEC, 4 ng/ml TNF-α for the last 16 hours): overcome

Compound: SIQDLNVSMKLFRKQAKWKIIAKLNDGRELSLD [βpep-16]
- angiostatic as determined by EC proliferation in vitro (EC): angiostatic
- EC proliferation, (3H)-thymidine incorporation (EC; [9]): 35447 ± 2621 cpm
- EC proliferation, (3H)-thymidine incorporation (EC; [10]): 15039 ± 2020 cpm
- EC proliferation, (3H)-thymidine incorporation (EC; [11]): 33663 ± 2572 cpm
- EC proliferation, (3H)-thymidine incorporation (EC; [12]): 11881 ± 2545 cpm
- EC proliferation, (3H)-thymidine incorporation (EC; [13]): 7852 ± 875 cpm
- EC proliferation, (3H)-thymidine incorporation (EC; [14]): 4929 ± 749 cpm
- EC proliferation, (3H)-thymidine incorporation (EC; [3]): 47727 ± 447 cpm
- EC proliferation, (3H)-thymidine incorporation (EC; [4]): 7450 ± 737 cpm
- EC proliferation, (3H)-thymidine incorporation (EC; [5]): 44919 ± 2081 cpm
- EC proliferation, (3H)-thymidine incorporation (EC; [6]): 6148 ± 1370 cpm
- EC proliferation, (3H)-thymidine incorporation (EC; [7]): 27071 ± 3277 cpm
- EC proliferation, (3H)-thymidine incorporation (EC; [8]): 2669 ± 370 cpm
- bFGF mediated downregulation of ICAM-1 [1]: complete block of bFGF-mediated downregulation

Compound: SIQDLNVSMKLFRKQAKWKLIVKLNDGRELSLD [βpep-14]
- angiostatic as determined by EC proliferation in vitro (EC): angiostatic
- EC proliferation, (3H)-thymidine incorporation (EC; [9]): 28695 ± 1062 cpm
- EC proliferation, (3H)-thymidine incorporation (EC; [10]): 14184 ± 1775 cpm
- EC proliferation, (3H)-thymidine incorporation (EC; [11]): 29530 ± 1608 cpm
- EC proliferation, (3H)-thymidine incorporation (EC; [12]): 9886 ± 2114 cpm
- EC proliferation, (3H)-thymidine incorporation (EC; [13]): 6585 ± 132 cpm
- EC proliferation, (3H)-thymidine incorporation (EC; [14]): 3774 ± 299 cpm
- EC proliferation, (3H)-thymidine incorporation (EC; [3]): 48443 ± 2700 cpm
- EC proliferation, (3H)-thymidine incorporation (EC; [4]): 7214 ± 1668 cpm
- EC proliferation, (3H)-thymidine incorporation (EC; [5]): 52126 ± 1258 cpm
- EC proliferation, (3H)-thymidine incorporation (EC; [6]): 6074 ± 899 cpm
- EC proliferation, (3H)-thymidine incorporation (EC; [7]): 7663 ± 715 cpm
- EC proliferation, (3H)-thymidine incorporation (EC; [8]): 1062 ± 325 cpm
- bFGF mediated downregulation of ICAM-1 [1]: complete block of bFGF-mediated downregulation

Compound: SIQFLKVSLNLDRKQAKWKIIVKLNDGRELSLD [βpep-24]
- cell proliferation activity (control of endothelial cell proliferation) [2]: very good at controlling cell proliferation

Compound: angiostatin
- complete responses (SCK tumors; angiostatin 25 or 50 mg/kg i.p. combined with 10 Gy days 0 and 1): nor did it induce any complete responses
- delay in tumor growth (SCK tumors; angiostatin 25 or 50 mg/kg i.p. days -1, 0, 1 combined with 10 Gy days 0 and 1): did not result in any significant delay in tumor growth

Compound: interferon-γ inducible protein-10 [IP-10]
- EC proliferation, (3H)-thymidine incorporation (EC; expt 3, 100 μg/ml, 10 ng/ml bFGF, medium 3432 ± 232): 725 ± 95 cpm
- effect on ICAM-1 expression, other inhibitors of angiogenesis [1]: the same results

Compound: thrombospondin-1 [TSP-1]
- EC proliferation, (3H)-thymidine incorporation (EC; expt 4, 10 μg/ml, 10 ng/ml bFGF, medium 31954 ± 1220): 22338 ± 860 cpm
- EC proliferation, (3H)-thymidine incorporation (EC; expt 4, 10 μg/ml, no bFGF, medium 18904 ± 1501): 8865 ± 639 cpm
- EC proliferation, (3H)-thymidine incorporation (EC; expt 4, 25 μg/ml, 10 ng/ml bFGF, medium 31954 ± 1220): 10267 ± 797 cpm
- EC proliferation, (3H)-thymidine incorporation (EC; expt 4, 25 μg/ml, no bFGF, medium 18904 ± 1501): 5565 ± 349 cpm
- effect on ICAM-1 expression, other inhibitors of angiogenesis [1]: the same results
